Measured values as given in PMC4475420 (Chemistry & biology, 2015).

Experiments:
Assay in all cases: PK/LDH coupled NADH oxidation assay, […] nm
Format in all cases: biochemical
Chimera-1 = details: 5 mM MgCl2, Tris-HCl pH 7.5
Chimera-2 = details: 5 mM MgCl2, Tris-HCl pH 7.5
VldE = VldE (Streptomyces hygroscopicus, UniProt Q15JG1); details: 2 mM validamine 7-phosphate, 5 mM MgCl2, Tris-HCl pH 7.5
OtsA(Sco) = molecular target: T1, OtsA(Sco) (Streptomyces coelicolor, UniProt Q9KXV1); details: 5 mM MgCl2, Tris-HCl pH 7.5
T1 sequence (Q9KXV1 1-462): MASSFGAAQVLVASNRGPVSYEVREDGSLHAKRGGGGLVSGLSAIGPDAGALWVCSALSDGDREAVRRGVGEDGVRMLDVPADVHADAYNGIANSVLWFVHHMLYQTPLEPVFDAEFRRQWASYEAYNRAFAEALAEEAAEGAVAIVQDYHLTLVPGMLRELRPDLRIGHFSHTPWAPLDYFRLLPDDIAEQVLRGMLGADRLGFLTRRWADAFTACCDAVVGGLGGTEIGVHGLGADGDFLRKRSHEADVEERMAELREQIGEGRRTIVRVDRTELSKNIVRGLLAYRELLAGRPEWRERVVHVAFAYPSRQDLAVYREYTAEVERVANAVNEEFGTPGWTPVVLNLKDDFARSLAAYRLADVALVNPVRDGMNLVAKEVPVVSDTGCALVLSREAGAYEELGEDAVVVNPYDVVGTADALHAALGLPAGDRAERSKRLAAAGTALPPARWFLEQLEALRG

Sequence of VldE (Q15JG1 whole entry): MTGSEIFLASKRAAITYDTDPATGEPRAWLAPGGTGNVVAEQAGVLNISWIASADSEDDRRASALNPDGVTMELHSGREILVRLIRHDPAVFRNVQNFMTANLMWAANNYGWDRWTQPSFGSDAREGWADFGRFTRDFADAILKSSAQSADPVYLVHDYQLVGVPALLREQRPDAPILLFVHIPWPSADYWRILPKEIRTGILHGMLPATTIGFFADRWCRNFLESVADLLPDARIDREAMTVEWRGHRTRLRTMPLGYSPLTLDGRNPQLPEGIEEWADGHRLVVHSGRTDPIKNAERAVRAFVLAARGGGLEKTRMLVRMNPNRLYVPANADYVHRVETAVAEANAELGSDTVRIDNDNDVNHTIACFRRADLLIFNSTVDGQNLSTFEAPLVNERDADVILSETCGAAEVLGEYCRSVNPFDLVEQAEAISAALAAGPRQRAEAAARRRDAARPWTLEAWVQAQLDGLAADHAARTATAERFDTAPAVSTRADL

N[C@H]1C[C@H](COP(=O)(O)O)[C@@H](O)[C@H](O)[C@H]1O [validamine 7-phosphate]
Km (Chimera-1; 2 mM GDP-glucose): 0.975 ± 0.1 mM

Nc1nc2c(ncn2[C@@H]2O[C@H](COP(=O)(O)OP(=O)(O)O[C@H]3O[C@H](CO)[C@@H](O)[C@H](O)[C@H]3O)[C@@H](O)[C@H]2O)c(=O)[nH]1 [GDP-glucose]
Km (Chimera-2; 2 mM glucose 6-phosphate): 3.56 ± 0.38 mM
Km (VldE): > 2.2 mM
Km (Chimera-1; 2 mM validamine 7-phosphate): 1.1 ± 0.07 mM

O=P(O)(O)OC[C@H]1OC(O)[C@H](O)[C@@H](O)[C@@H]1O (stereo partly drawn) [glucose 6-phosphate]
Km (Chimera-2; 2 mM GDP-glucose): 6.44 ± 0.95 mM

Nc1ccn([C@@H]2O[C@H](COP(=O)(O)OP(=O)(O)O[C@H]3O[C@H](CO)[C@@H](O)[C@H](O)[C@H]3O)[C@@H](O)[C@H]2O)c(=O)n1 [CDP-glucose]
Km (OtsA(Sco); 2 mM glucose 6-phosphate): > 4 mM

Nc1nc2c(ncn2[C@@H]2O[C@H](COP(=O)(O)OP(=O)(O)O[C@H]3C=C(CO)[C@@H](O)[C@H](O)[C@H]3O)[C@@H](O)[C@H]2O)c(=O)[nH]1 [GDP-valienol]
Km (Chimera-1; 2 mM validamine 7-phosphate): > 10 mM

O=P(O)(O)OC[C@H]1C[C@H](O)[C@H](O)[C@@H](O)[C@@H]1O [validol 7-phosphate]
Km (OtsA(Sco); 2 mM GDP-glucose): > 10 mM
Km (Chimera-2; 2 mM GDP-glucose): 4.95 ± 0.7 mM
